From US12227488B2, “Small molecule degraders of Helios and methods of use” (DANA-FARBER CANCER INSTITUTE, INC., priority 2018, dated 2025)
Entries after “also recorded” stand apart in the source; their conditions may differ.

Key:
[1] = target: T1, IKZF1 (Homo sapiens, UniProt Q13422); experiment: Cellular degradation assay, eGFP-IKZF1Δ fusion with mCherry reporter in Flp-In 293 cells; assay type: cell-based; settings: for IKZF1 GFP/RFP Relative Abundance: 5 h incubation, n=1
T1 construct: expressed in transfected cells; host or cells: Flp-In 293
T1 sequence (Q13422 83-213 isoform Q13422-7 limits assumed): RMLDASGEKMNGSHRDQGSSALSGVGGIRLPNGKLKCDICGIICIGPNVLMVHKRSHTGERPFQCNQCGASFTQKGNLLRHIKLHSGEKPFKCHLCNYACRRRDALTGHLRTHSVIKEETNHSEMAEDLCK
T1 sequence (Q96SW2 whole entry partner, the tested form may be a part): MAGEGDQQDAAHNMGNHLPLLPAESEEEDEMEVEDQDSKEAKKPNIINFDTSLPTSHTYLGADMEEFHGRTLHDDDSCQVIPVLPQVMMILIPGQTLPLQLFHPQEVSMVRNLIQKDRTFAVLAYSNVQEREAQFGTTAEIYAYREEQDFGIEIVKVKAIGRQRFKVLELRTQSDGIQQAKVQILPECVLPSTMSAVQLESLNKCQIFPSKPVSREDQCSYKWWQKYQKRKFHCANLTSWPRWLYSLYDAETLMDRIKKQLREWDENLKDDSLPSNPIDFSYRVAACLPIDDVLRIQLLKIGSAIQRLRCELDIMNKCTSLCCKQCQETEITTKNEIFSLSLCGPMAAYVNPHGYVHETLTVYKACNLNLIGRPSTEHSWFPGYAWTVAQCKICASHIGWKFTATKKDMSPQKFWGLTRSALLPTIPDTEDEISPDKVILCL
T1 sequence (Q16531 2-1140 partner limits assumed): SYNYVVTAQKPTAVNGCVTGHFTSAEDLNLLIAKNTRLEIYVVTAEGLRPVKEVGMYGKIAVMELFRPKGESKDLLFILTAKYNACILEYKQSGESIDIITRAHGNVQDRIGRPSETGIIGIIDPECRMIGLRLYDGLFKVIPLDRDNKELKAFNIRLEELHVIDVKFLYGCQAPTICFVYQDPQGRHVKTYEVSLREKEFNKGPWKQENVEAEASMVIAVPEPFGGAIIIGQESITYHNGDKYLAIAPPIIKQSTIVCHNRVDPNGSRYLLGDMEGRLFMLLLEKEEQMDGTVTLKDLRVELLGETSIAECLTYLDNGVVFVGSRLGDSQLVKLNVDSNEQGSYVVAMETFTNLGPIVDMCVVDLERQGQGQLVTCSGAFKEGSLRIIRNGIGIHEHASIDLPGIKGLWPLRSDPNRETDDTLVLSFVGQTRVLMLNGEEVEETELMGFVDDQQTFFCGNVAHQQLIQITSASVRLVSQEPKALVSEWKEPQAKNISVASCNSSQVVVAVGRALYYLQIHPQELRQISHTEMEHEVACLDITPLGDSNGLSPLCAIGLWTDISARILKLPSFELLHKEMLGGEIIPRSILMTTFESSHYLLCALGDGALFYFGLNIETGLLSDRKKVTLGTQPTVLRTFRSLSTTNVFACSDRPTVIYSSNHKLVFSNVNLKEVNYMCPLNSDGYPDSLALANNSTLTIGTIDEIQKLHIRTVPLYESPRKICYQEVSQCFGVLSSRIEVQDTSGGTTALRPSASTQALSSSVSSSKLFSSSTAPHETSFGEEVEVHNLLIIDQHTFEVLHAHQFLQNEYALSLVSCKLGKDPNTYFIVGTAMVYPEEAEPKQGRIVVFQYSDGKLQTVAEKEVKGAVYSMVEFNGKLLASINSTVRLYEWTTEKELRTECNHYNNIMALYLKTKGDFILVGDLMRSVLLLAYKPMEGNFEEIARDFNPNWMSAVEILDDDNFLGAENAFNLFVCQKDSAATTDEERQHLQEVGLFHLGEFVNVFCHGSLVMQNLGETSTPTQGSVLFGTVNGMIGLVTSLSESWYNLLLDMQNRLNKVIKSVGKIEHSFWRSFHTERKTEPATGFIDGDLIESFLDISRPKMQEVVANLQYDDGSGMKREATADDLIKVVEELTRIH
How it was run: (§1)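 Flp-In 293 cells stably expressing eGFP-tagged degron fusions with P2A-mCherry reporter were treated with compound titrations (0.5% DMSO) for 5 hours. Imaging quantified GFP-positive/mCherry-positive cell fraction per well; DC50 at 5 h from nonlinear variable-slope fit.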

[2] = target: T2, SALL4 ZNF1-2 (Homo sapiens, UniProt Q96SW2+Q9UJQ4); experiment: Cellular degradation assay, eGFP-SALL4 ZnF1-2 fusion with mCherry reporter in Flp-In 293 cells; assay type: cell-based; settings: 5 h incubation, n=1
T2 construct: IKZF1Δ, IKZF2Δ, GSPT1 and SALL4 ZnF1-2 were subcloned; expressed in transfected cells; host or cells: Flp-In 293
T2 sequence (Q9UJQ4 378-438 limits assumed): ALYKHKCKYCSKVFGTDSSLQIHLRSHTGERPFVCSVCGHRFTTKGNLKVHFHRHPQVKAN
T2 sequence (Q96SW2 whole entry, the tested form may be a part): as the sequence (Q96SW2 whole entry partner, the tested form may be a part) above
T2 sequence (Q16531 whole entry partner, the tested form may be a part): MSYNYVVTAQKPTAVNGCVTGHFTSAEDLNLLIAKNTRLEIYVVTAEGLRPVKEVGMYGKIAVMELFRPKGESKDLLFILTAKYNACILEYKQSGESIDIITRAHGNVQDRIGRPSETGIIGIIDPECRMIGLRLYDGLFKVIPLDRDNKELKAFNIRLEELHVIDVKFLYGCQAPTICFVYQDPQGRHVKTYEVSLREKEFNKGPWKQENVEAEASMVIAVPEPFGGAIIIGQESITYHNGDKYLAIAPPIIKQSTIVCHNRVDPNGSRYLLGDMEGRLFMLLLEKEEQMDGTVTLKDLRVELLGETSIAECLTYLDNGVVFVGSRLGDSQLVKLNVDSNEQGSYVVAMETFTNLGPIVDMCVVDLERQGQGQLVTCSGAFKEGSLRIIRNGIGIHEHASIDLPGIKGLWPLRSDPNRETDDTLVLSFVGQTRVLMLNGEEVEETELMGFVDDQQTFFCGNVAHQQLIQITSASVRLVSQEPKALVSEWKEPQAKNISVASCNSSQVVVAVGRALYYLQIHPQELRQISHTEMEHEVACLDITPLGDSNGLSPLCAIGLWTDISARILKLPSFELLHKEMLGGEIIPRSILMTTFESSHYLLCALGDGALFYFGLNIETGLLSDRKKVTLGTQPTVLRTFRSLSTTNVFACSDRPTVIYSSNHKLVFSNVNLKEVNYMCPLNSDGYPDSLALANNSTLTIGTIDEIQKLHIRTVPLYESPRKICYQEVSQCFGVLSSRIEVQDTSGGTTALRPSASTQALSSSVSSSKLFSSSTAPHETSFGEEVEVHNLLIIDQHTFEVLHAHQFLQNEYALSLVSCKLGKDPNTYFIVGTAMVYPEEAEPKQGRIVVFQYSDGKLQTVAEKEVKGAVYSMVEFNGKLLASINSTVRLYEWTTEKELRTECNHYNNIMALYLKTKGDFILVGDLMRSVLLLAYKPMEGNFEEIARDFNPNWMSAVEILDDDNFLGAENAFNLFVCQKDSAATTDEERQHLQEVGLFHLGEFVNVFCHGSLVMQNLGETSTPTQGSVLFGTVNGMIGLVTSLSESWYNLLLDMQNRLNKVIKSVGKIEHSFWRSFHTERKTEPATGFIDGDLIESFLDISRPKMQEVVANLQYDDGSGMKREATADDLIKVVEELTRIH
Protocol: IKZF1Δ, IKZF2Δ, GSPT1 and SALL4 ZnF1-2 were subcloned into mammalian pcDNA5/FRT Vector (Ampicillin and Hygromycin B resistant) modified to contain MCS-eGFP-P2A-mCherry. Stable cell lines expressing eGFP-protein fusion and mCherry reporter were generated using Flp-In™ 293 system. Plasmid (0.3 μg) and pOG44 (4.7 μg) DNA were preincubated in 100 μL of Opti-MEM® I (Gibco®, Life Technologies™) media containing 0.05 mg/mL Lipofectamine® 2000 (Invitrogen™) for 20 min and added to Flp-In™ 293 cells containing 1.9 ml of DMEM media (Gibco®, Life Technologies™) per well in a 6-well plate format (Falcon, 353046). Cells were propagated after 48 h and transferred into a 10 cm^2 plate (Corning, 430165) in DMEM media containing 50 μg/mL of Hygromycin B (REF 10687010, Invitrogen™) as a selection marker. Following 2-3 passage cycle, FACS (FACSAria™ II, BD) was used to enrich for cells expressing eGFP and mCherry. Cells stably expressing the IKZF1Δ, IKZF2Δ, GSPT1 or SALL4 Znf1-2 GFP fusions with mCherry reporter were seeded at 30-50% confluency in 384-well plates with 50 μL FluoroBrite™ DMEM media (Thermo Fisher Scientific, A18967) containing 10% FBS per well a day before compound treatment. Compound titrations were dispensed using a D300e Digital Dispenser (HP), normalized to 0.5% DMSO, and incubated with cells for 5 hours. The assay plate was imaged immediately using an Acumen® High Content Imager (TTP Labtech) with 488 nm and 561 nm lasers in […] grid per well format.
The resulting images were analyzed using CellProfiler™. A series of image analysis steps (‘image analysis pipeline’) was constructed. First, the red and green channels were aligned and cropped to target the middle of each well (to avoid analysis of heavily clumped cells at the edges), and a background illumination function was calculated for both red and green channels of each well individually and subtracted to correct for illumination variations across the 384-well plate from various sources of error. An additional step was then applied to the green channel to suppress the analysis of large auto fluorescent artifacts and enhance the analysis of cell specific fluorescence by way of selecting for objects under a given size, 30 A.U., and with a given shape, speckles. mCherry-positive cells were then identified in the red channel filtering for objects between 8-60 pixels in diameter and using intensity to distinguish between clumped objects. The green channel was then segmented into GFP positive and negative areas and objects were labeled as GFP positive if at least 40% of it overlapped with a GFP positive area. The fraction of GFP-positive cells/mCherry-positive cells in each well was then calculated, and the green and red images were rescaled for visualization.

[3] = target: GSPT1 (Homo sapiens, UniProt P15170+Q96SW2); experiment: Cellular degradation assay, eGFP-GSPT1 fusion with mCherry reporter in Flp-In 293 cells; assay type: cell-based; set-up: expressed in transfected cells; host or cells: Flp-In 293; settings: for GSPT1 GFP/RFP Relative Abundance: 5 h incubation, n=1
Sequence of GSPT1 (P15170 whole entry, the tested form may be a part): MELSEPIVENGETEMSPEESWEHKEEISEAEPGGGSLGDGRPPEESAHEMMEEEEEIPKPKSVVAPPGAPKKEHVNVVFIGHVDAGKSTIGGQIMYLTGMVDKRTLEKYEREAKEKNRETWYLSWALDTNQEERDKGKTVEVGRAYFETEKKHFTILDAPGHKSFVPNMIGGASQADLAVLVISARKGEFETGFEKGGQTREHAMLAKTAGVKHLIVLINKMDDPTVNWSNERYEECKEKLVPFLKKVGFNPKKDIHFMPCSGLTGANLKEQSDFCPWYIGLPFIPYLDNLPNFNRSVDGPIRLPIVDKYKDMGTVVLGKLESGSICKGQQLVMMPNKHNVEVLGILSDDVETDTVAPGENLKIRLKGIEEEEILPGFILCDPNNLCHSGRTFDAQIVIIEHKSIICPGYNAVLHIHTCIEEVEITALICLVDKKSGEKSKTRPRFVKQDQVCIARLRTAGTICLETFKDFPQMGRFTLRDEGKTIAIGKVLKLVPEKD
Sequence of GSPT1 (Q96SW2 whole entry, the tested form may be a part): as the sequence (Q96SW2 whole entry partner, the tested form may be a part) above
Sequence of GSPT1 (Q16531 whole entry partner, the tested form may be a part): as the sequence (Q16531 whole entry partner, the tested form may be a part) above
How it was run: as §1

[4] = target: T3, CRBN and Helios (IKZF2) (Homo sapiens, UniProt Q96SW2+Q9UKS7); experiment: TR-FRET dimerization assay (CRBN-IKZF2 ternary complex formation); assay type: binding; settings: for TR-FRET-IKZF2 (Normalized to CC-885): n=1
T3 construct: His (N); Strep (N)
T3 sequence (Q96SW2 whole entry): as the sequence (Q96SW2 whole entry partner, the tested form may be a part) above
T3 sequence (Q9UKS7 whole entry): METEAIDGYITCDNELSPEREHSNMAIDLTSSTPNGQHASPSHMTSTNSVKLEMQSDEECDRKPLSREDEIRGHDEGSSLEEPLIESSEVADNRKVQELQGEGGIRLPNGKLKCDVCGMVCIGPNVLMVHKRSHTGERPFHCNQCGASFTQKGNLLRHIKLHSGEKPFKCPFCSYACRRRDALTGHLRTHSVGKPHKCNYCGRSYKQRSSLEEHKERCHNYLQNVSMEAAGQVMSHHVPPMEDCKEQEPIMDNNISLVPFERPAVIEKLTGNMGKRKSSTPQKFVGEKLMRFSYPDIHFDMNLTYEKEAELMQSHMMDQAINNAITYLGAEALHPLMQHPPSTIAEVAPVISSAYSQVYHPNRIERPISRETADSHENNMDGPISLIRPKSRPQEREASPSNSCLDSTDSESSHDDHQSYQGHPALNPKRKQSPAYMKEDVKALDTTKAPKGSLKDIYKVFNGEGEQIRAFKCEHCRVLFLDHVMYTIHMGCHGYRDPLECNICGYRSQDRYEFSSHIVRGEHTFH
How it was run: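 BODIPY-labeled DDB1ΔB-CRBN and in vitro biotinylated IKZF2 were treated with increasing compound concentrations plus tracer Terbium-Streptavidin and incubated 15 min at rt. Recruitment was quantified as the 520/490 nm TR-FRET ratio; values are single measurements (n=1), each averaged from at least three technical replicates.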

[5] = system: IKZF2; experiment: Cellular degradation assay, eGFP-IKZF2Δ fusion with mCherry reporter in Flp-In 293 cells; assay type: cell-based; settings: for IKZF2 GFP/RFP Relative Abundance: 5 h incubation, n=1
How it was run: as §1

[6] = compound concentration 2.00E−05
[7] = compound concentration 2.00E−06
[8] = compound concentration 2.00E−07
[9] = half degradation at 5 h (DC50,5 h), triplicate, 11 point dose response
[10] = compound concentration 6.6667E−05
[11] = compound concentration 6.6667E−06
[12] = compound concentration 6.6667E−07 (667 nM)

Compound	IKZF1 GFP/RFP Relative Abundance [1, 6]	IKZF1 GFP/RFP Relative Abundance [1, 7]	IKZF1 GFP/RFP Relative Abundance [1, 8]	DC50 [1, 9] [nM]	SALL4 ZNF1-2 GFP/RFP Relative Abundance [2, 6]	SALL4 ZNF1-2 GFP/RFP Relative Abundance [2, 7]	SALL4 ZNF1-2 GFP/RFP Relative Abundance [2, 8]	GSPT1 GFP/RFP Relative Abundance [3, 6]	GSPT1 GFP/RFP Relative Abundance [3, 7]	GSPT1 GFP/RFP Relative Abundance [3, 8]	DC50 [3, 9] [nM]	TR-FRET signal (520/490 ratio), CRBN-Helios dimerization, in words ([4]; FIG. 1B, 2A, 5)	TR-FRET-IKZF2 (Normalized to CC-885) [4, 10]	TR-FRET-IKZF2 (Normalized to CC-885) [4, 11]	TR-FRET-IKZF2 (Normalized to CC-885) [4, 12]	IKZF2 cellular degradation, in words ([5]; Table 1 summary)	IKZF2 GFP/RFP Relative Abundance [5, 6]	IKZF2 GFP/RFP Relative Abundance [5, 7]	IKZF2 GFP/RFP Relative Abundance [5, 8]	DC50 [5, 9] [nM]
Cc1ccc(NC(=O)NCc2ccc3c(c2)CN(C2CCC(=O)NC2=O)C3=O)cc1Cl (centres unmarked) [CC-885, reference compound]	0.133	0.071	0.077	0.56	1.000	0.876	0.852	0.240	0.041	0.012	0.084	some activity; also recorded: able to recruit IKZF2 to CRBN	1.065	0.982	0.953	degrade the IKZF2 in cellular assay	0.277	0.281	0.289	80.7
O=C1CCC(N2C(=O)C=C(Nc3ccccc3)C2=O)C(=O)N1 (centres unmarked) [Compound 2, 3-(2,5-dioxo-3-(phenylamino)-2,5-dihydro-1H-pyrrol-1-yl)piperidine-2,6-dione]	0.143	0.143	0.147	–	0.724	0.762	0.774	0.763	0.903	0.930	–	–	0.386	0.306	0.286	–	0.878	0.920	0.864	–
Cc1ccc(NC2=CC(=O)N(C3CCC(=O)NC3=O)C2=O)cc1Cl (centres unmarked) [Compound 3, 3-(3-((3-chloro-4-methylphenyl)amino)-2,5-dioxo-2,5-dihydro-1H-pyrrol-1-yl)piperidine-2,6-dione]	0.242	0.370	0.349	–	0.914	0.884	0.879	1.204	1.006	1.190	–	–	0.357	0.267	0.253	–	1.032	0.973	0.979	–
